Source: article PMC11372837, “Albumin-Mediated Drug Uptake by Organic Anion Transporter 1/3 Is Real: Implications for the Prediction of Active Renal Secretion Clearance” (Molecular Pharmaceutics, 2024)
Several values for one entry are separate records, joined by “and”; a condition that tells them apart may be missing. Equal entries are not always repeated. Where two headings read alike, the source gives them in different places.

Assays:
[1] = in vivo, plasma renal clearance, clinical data; cited from earlier work
OAT1/3 [2] = assay: Bottom-up IVIVE of CLint,sec, CLsec and CLr, relative activity factor (RAF) approach; design: species or system human
Text: (§1) The relative expression and relative activity factor (REF and RAF) are unitless scalers that account for in vivo versus in vitro differences in the abundance and activity of OAT1/3 and are used for IVIVE of in vitro CLint,u,active. REF was derived from the OAT1/3 expression ratio between the in vivo human kidney cortex to the in vitro ciPTEC-OAT1/3, as shown in eq 7: [drawing 8] 7 Absolute abundance of OAT1 and OAT3 in the human kidney cortex was previously quantified by our group using the filter-aided sample preparation protocol and global proteomic analysis.[44]

[3] = Observed in vivo (clinical) renal, secretion and intrinsic secretion clearance; details: in vivo; for CLint,sec Observed: back-calculated from clinical data
OAT3 = target: T1, OAT3 (Homo sapiens, UniProt Q8TCC7); assay: OAT3 uptake study in ciPTEC-OAT3; details: for ratio of CLint,u,active (R) (HSA/control) 1%: OAT3, 1% HSA vs control; for ratio of CLint,u,active (R) (HSA/control) 4%: OAT3, 4% HSA vs control; for Vb,max OAT3, Active and Passive Uptake: eq 4 fitted to CLint,u; for Vb,max OAT3, Active and Passive Uptake / Vb,max OAT3, Active Uptake Only: mean ± S.D.; for Vb,max OAT3, Active Uptake Only: eq 4 fitted to CLint,u,active
T1 sequence (Q8TCC7 1-542): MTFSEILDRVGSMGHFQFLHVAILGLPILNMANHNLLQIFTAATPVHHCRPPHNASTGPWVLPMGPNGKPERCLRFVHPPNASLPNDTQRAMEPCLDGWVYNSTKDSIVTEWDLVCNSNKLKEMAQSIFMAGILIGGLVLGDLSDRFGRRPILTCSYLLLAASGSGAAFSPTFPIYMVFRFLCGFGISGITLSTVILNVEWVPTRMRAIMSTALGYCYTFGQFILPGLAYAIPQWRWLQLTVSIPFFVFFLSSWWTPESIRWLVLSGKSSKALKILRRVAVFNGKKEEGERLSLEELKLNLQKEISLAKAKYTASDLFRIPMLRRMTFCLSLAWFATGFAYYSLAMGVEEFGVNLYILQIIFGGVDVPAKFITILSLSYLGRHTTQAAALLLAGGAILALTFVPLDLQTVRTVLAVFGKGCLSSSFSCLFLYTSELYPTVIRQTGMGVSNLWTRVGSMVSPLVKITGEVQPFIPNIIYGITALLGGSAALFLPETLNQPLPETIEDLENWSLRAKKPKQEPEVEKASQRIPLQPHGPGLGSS

OAT1 = target: T2, OAT1 (Homo sapiens, UniProt Q4U2R8); assay: OAT1 uptake study in ciPTEC-OAT1; details: for OAT1 substrate status (uptake in ciPTEC-OAT1): control vs probenecid 300 μM
T2 sequence (Q4U2R8 1-563): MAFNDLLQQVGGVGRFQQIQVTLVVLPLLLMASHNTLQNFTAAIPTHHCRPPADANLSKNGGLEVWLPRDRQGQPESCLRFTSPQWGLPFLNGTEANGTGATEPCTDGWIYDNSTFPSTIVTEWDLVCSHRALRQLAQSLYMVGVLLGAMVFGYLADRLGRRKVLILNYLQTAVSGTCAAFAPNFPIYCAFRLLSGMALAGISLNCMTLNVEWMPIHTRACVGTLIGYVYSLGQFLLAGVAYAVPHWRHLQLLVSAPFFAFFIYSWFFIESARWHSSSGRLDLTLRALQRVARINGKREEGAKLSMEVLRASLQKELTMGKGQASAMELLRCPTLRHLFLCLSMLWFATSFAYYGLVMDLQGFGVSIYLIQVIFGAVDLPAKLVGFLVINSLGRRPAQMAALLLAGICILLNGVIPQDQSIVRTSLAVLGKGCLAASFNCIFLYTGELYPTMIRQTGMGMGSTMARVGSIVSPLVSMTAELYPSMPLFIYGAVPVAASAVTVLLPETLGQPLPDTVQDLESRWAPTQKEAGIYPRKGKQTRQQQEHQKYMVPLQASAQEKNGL

human serum albumin = human serum albumin (Homo sapiens, UniProt P02768); assay: Extent of albumin binding: high throughput equilibrium dialysis (fu,inc, Kd); format: in vitro ADME; details: mean ± SD; for Kd: estimated using eq 3 from measured fu,inc; for fraction unbound at 6 h: human, equilibrium dialysis 37 °C 6 h
Protocol: Briefly, cellulose membranes with MWCO of 12–14 kDa were submerged in distilled water for 1 h, followed by 20% ethanol/distilled water for at least 20 min. Prior to the start of the experiment, cellulose membranes were rinsed in distilled water and submerged in blank DPBS for 15 min. The HTDialysis device was assembled according to the manufacturer’s instructions (https://www.htdialysis.com). Blank DPBS was first added to the receiver side of the dialysis membranes, followed by DPBS spiked with HSA and the OAT1/3 substrate to the donor side. Each HSA concentration was tested in triplicates. The HTDialysis device was sealed with an adhesive sealing film and incubated in a water bath at 37 °C for 6 h shaken at 150 rpm. Once the assay was completed, aliquots from both receiver and donor wells were transferred to a 96-well plate and stored at −80 °C until analysis. DPBS spiked with the OAT1/3 substrate from both before and after incubation was stored to assess the recovery and stability of the samples. To prepare the sample for analysis, donor and receiver samples were matrix-matched and quenched with ice-cold acetonitrile containing an internal standard (0.5 μM gemfibrozil or 0.05 μM buspirone).

OAT1/3 [4] = assay: Bottom-up IVIVE of CLint,sec, CLsec and CLr, relative expression factor (REF) approach; design: species or system human; details: for CLint,sec Predicted 0% HSA / CLint,sec Predicted 1% HSA / CLint,sec Predicted 4% HSA / CLsec Predicted 0% HSA / CLsec Predicted 1% HSA / CLsec Predicted 4% HSA: REF approach
Text: as §1

[5] = human, in vivo
[6] = 1% human serum albumin in DPBS, 1% HSA, read-out: fu,inc (1%)
[7] = 4% HSA in DPBS, 4% HSA, read-out: fu,inc (4%)

Chain of human serum albumin (P02768 25-609): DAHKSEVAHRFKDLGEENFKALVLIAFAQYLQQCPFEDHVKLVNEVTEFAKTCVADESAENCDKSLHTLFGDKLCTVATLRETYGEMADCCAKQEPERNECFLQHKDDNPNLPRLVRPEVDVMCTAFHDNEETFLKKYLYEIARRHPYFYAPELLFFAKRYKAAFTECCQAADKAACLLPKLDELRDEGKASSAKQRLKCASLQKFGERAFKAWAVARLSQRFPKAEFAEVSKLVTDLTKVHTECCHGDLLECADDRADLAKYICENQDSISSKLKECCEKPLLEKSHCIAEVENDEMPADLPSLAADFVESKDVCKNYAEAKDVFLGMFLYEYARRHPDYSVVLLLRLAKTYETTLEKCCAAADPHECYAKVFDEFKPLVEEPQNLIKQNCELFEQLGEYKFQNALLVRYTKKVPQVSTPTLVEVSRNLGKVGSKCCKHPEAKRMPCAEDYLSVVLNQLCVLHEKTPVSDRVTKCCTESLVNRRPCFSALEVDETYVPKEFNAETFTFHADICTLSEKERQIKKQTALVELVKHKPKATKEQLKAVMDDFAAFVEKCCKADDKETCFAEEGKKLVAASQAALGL

Row | SMILES | CLr Observed [1] | CLint,sec Predicted 0% HSA (OAT1/3 [2]) | CLint,sec Predicted 1% HSA (OAT1/3 [2]) | CLint,sec Predicted 4% HSA (OAT1/3 [2]) | CLsec Predicted 0% HSA (OAT1/3 [2]) | CLsec Predicted 1% HSA (OAT1/3 [2]) | CLsec Predicted 4% HSA (OAT1/3 [2]) | ratio of CLint,u,active (R) (HSA/control) 1% (OAT3) | ratio of CLint,u,active (R) (HSA/control) 4% (OAT3) | Vb,max OAT3, Active and Passive Uptake (OAT3) | Vb,max OAT3, Active Uptake Only (OAT3) | OAT1 substrate status (uptake in ciPTEC-OAT1) (OAT1) | Kd (human serum albumin) | fraction unbound at 6 h (human serum albumin; [6]) | fraction unbound at 6 h (human serum albumin; [7]) | CLint,sec Predicted 0% HSA (OAT1/3 [4]) | CLint,sec Predicted 1% HSA (OAT1/3 [4]) | CLint,sec Predicted 4% HSA (OAT1/3 [4]) | CLsec Predicted 0% HSA (OAT1/3 [4]) | CLsec Predicted 1% HSA (OAT1/3 [4]) | other results
1 | CCCc1nc(C(C)(C)O)c(C(=O)O)n1Cc1ccc(-c2ccccc2-c2nnn[nH]2)cc1 [olmesartan] | 0.61 L/h | 34.2 L/h | 355 L/h | 976 L/h | 0.09 L/h | 0.92 L/h | 2.40 L/h | 10.5 ± 2.3 | 28 and 28.1 ± 3.0 | 46.2 ± 12.3 pmol/min/mg | 44.2 ± 12.3 pmol/min/mg | dual OAT1/3 substrates | 1.43 ± 0.1 µM | 0.011 ± 0.001 | 0.002 ± 0.0002 | 7.92 L/h | 85.2 L/h | 284 L/h | 0.02 L/h | 0.22 L/h | CLint,sec Observed [3]: 229 L/h; CLint,sec Observed ([3]; listed as Olmesartan): 228 L/h; CLsec Observed ([3]; plasma secretion clearance): 0.59 L/h; OAT3 substrate status (uptake in ciPTEC-OAT3) (OAT3; control vs probenecid 300 μM): dual OAT1/3 substrates; ratio of CLint,u,active (R) (HSA/control) 1% (OAT1; OAT1, 1% HSA vs control, unbound concentration kept constant): 17.9 ± 4.0; ratio of CLint,u,active (R) (HSA/control) 4% (OAT1; OAT1, 4% HSA vs control, unbound concentration kept constant): 122 and 122 ± 42; Vb,max OAT1, Active and Passive Uptake (OAT1; eq 4 fitted to CLint,u, mean ± S.D.): 75.7 ± 15.5 pmol/min/mg; Vb,max OAT1, Active Uptake Only (OAT1; eq 4 fitted to CLint,u,active, Kd,m fixed from OAT3 data, mean ± S.D.): 72.7 ± 15.0 pmol/min/mg; Predicted in vivo percentage transported via OAT1 (versus OAT3) (OAT1/3 [4]; 4% HSA, REF scaler): 33.1%; CLsec Predicted 4% HSA (OAT1/3 [4]): 0.74 L/h; Predicted in vivo percentage transported via OAT1 (versus OAT3) (OAT1/3 [4]; control phase (0% HSA)): 7.9%
2 | CCCN(CCC)S(=O)(=O)c1ccc(C(=O)O)cc1 [probenecid] |  |  |  |  |  |  |  |  |  |  |  |  |  |  |  |  |  |  |  |  | Effect on OAT3-mediated uptake of the substrates (OAT3; probenecid 300 μM, 0% HSA): significantly reduced
3 | CC(C)c1nc(N(C)S(C)(=O)=O)nc(-c2ccc(F)cc2)c1/C=C/[C@@H](O)C[C@@H](O)CC(=O)O [rosuvastatin] | 11.9 L/h | 34.3 L/h | 68.3 L/h | 89.0 L/h | 3.64 L/h | 6.66 L/h | 8.27 L/h | 2.12 ± 0.58 | 2.7 and 2.68 ± 0.62 | 290 ± 101 pmol/min/mg | 281 ± 96 pmol/min/mg | did not show any appreciable uptake | 127 ± 5.6 µM | 0.435 ± 0.041 | 0.18 ± 0.009 | 6.80 L/h | 13.6 L/h | 17.7 L/h | 0.78 L/h | 1.52 L/h | CLint,sec Observed [5]: 130 L/h; CLsec Observed [5]: 11.1 L/h; CLsec Predicted 4% HSA (OAT1/3 [4]): 1.96 L/h
